# Measured values published in PubChem BioAssay AID2060899 (Molecular Pharmacology Branch, DTP, NCI, 2025).
# Tested on: 565726-208-R1-J5-PDC complex spheroids, growth inhibition
# Experiment: Anticancer human tumor 565726-208-R1-J5-PDC patient-derived pancreatic adenocarcinoma cell line growth inhibition [RAS]
# Details: for viability, T/C: stronger effect = lower value
# Method in brief: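 Multi-cell-type spheroids: tumor cells plus HUVEC endothelial cells and mesenchymal stem cells. RAS-pathway inhibitors were combined with targeted agents, each dosed in half-log steps down from clinical Cmax, or from 10 microM when Cmax was unknown.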
# [1] = curve of first compound, second compound 0.000949 µM
# [2] = curve of first compound, second compound 0.003 µM
# [3] = curve of first compound, second compound 0.00949 µM
# [4] = curve of first compound, second compound 0.03 µM
# [5] = curve of first compound, second compound 0.0949 µM
# [6] = curve of first compound, second compound 0.3 µM
# 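Also: spheroids exposed to compounds for seven days before readout.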
# 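For viability, T/C in this document: 100% = DMSO vehicle control viability.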
smiles,measurement,setting,value
C=CC(=O)N1CCN(c2nc(OCC3CCCN3C)nc3c(F)c(-c4nc(N)cc(C)c4C(F)(F)F)c(Cl)cc23)C(C)C1 (configuration not stated) + CCn1c(-c2cccnc2C(C)OC)c2c3cc(ccc31)N1CCOC(CC(NC(=O)C(C(C)C)N(C)C(=O)C3(F)CCN(C(=O)C#CC(C)(C)N(C)C)CC3)C(=O)N3CCCC(N3)C(=O)OCC(C)(C)C2)C1,IC50,[1],> 1000 nM
same,IC50,[2],> 1000 nM
same,IC50,[3],> 1000 nM
same,IC50,[4],> 1000 nM
same,IC50,[5],> 1000 nM
same,IC50,[6],> 1000 nM
same,"viability, T/C","second compound 0.000949 µM, first compound 0.00316 µM",99.3%
same,"viability, T/C","second compound 0.000949 µM, first compound 0.01 µM",98.6%
same,"viability, T/C","second compound 0.000949 µM, first compound 0.0316 µM",108%
same,"viability, T/C","second compound 0.000949 µM, first compound 0.1 µM",111%
same,"viability, T/C","second compound 0.000949 µM, first compound 0.316 µM",97%
same,"viability, T/C","second compound 0.000949 µM, first compound 1 µM",102%
same,"viability, T/C","second compound 0.003 µM, first compound 0.00316 µM",103%
same,"viability, T/C","second compound 0.003 µM, first compound 0.01 µM",109%
same,"viability, T/C","second compound 0.003 µM, first compound 0.0316 µM",105%
same,"viability, T/C","second compound 0.003 µM, first compound 0.1 µM",93.6%
same,"viability, T/C","second compound 0.003 µM, first compound 0.316 µM",96.9%
same,"viability, T/C","second compound 0.003 µM, first compound 1 µM",103%
same,"viability, T/C","second compound 0.00949 µM, first compound 0.00316 µM",106%
same,"viability, T/C","second compound 0.00949 µM, first compound 0.01 µM",112%
same,"viability, T/C","second compound 0.00949 µM, first compound 0.0316 µM",104%
same,"viability, T/C","second compound 0.00949 µM, first compound 0.1 µM",107%
same,"viability, T/C","second compound 0.00949 µM, first compound 0.316 µM",96.8%
same,"viability, T/C","second compound 0.00949 µM, first compound 1 µM",100%
same,"viability, T/C","second compound 0.03 µM, first compound 0.00316 µM",99.3%
same,"viability, T/C","second compound 0.03 µM, first compound 0.01 µM",97.7%
same,"viability, T/C","second compound 0.03 µM, first compound 0.0316 µM",111%
same,"viability, T/C","second compound 0.03 µM, first compound 0.1 µM",98.7%
same,"viability, T/C","second compound 0.03 µM, first compound 0.316 µM",98.6%
same,"viability, T/C","second compound 0.03 µM, first compound 1 µM",104%
same,"viability, T/C","second compound 0.0949 µM, first compound 0.00316 µM",97.1%
same,"viability, T/C","second compound 0.0949 µM, first compound 0.01 µM",109%
same,"viability, T/C","second compound 0.0949 µM, first compound 0.0316 µM",109%
same,"viability, T/C","second compound 0.0949 µM, first compound 0.1 µM",94.8%
same,"viability, T/C","second compound 0.0949 µM, first compound 0.316 µM",100%
same,"viability, T/C","second compound 0.0949 µM, first compound 1 µM",94.5%
same,"viability, T/C","second compound 0.3 µM, first compound 0.00316 µM",93.7%
same,"viability, T/C","second compound 0.3 µM, first compound 0.01 µM",79%
same,"viability, T/C","second compound 0.3 µM, first compound 0.0316 µM",96.7%
same,"viability, T/C","second compound 0.3 µM, first compound 0.1 µM",95.4%
same,"viability, T/C","second compound 0.3 µM, first compound 0.316 µM",90.3%
same,"viability, T/C","second compound 0.3 µM, first compound 1 µM",85.3%
CCn1c(-c2cccnc2C(C)OC)c2c3cc(ccc31)N1CCOC(CC(NC(=O)C(C(C)C)N(C)C(=O)C3(F)CCN(C(=O)C#CC(C)(C)N(C)C)CC3)C(=O)N3CCCC(N3)C(=O)OCC(C)(C)C2)C1 (configuration not stated),"viability, T/C",compound 0.000949 µM,102% [middle of 8 runs]
same,"viability, T/C",compound 0.003 µM,99.7% [middle of 8 runs]
same,"viability, T/C",compound 0.00949 µM,104% [middle of 8 runs]
same,"viability, T/C",compound 0.03 µM,103% [middle of 8 runs]
same,"viability, T/C",compound 0.0949 µM,103% [middle of 8 runs]
same,"viability, T/C",compound 0.3 µM,90% [middle of 8 runs]
same,IC50,"compound alone, run of 07/09/2024",> 300 nM
CC1(C)CCC(Nc2ncc(C(F)(F)F)c(-c3c[nH]c4c(P(C)(C)=O)c(C#N)ccc34)n2)CN1 (configuration not stated) + CCn1c(-c2cc(N3CCN(C)CC3)cnc2C(C)OC)c2c3cc(ccc31)-c1csc(n1)CC(NC(=O)C1CC1C)C(=O)N1CCCC(N1)C(=O)OCC(C)(C)C2,IC50,[1],1.34 nM
same,IC50,[2],< 0.949 nM
same,IC50,[3],< 0.949 nM
same,IC50,[4],< 0.949 nM
same,IC50,[5],< 0.949 nM
same,IC50,[6],< 0.949 nM
same,"viability, T/C","second compound 0.000949 µM, first compound 0.000949 µM",54.4%
same,"viability, T/C","second compound 0.000949 µM, first compound 0.003 µM",41.2%
same,"viability, T/C","second compound 0.000949 µM, first compound 0.00949 µM",30.8%
same,"viability, T/C","second compound 0.000949 µM, first compound 0.03 µM",31.5%
same,"viability, T/C","second compound 0.000949 µM, first compound 0.0949 µM",31.6%
same,"viability, T/C","second compound 0.000949 µM, first compound 0.3 µM",34.4%
same,"viability, T/C","second compound 0.003 µM, first compound 0.000949 µM",46.8%
same,"viability, T/C","second compound 0.003 µM, first compound 0.003 µM",40.3%
same,"viability, T/C","second compound 0.003 µM, first compound 0.00949 µM",38.4%
same,"viability, T/C","second compound 0.003 µM, first compound 0.03 µM",28.9%
same,"viability, T/C","second compound 0.003 µM, first compound 0.0949 µM",32.6%
same,"viability, T/C","second compound 0.003 µM, first compound 0.3 µM",29.9%
same,"viability, T/C","second compound 0.00949 µM, first compound 0.000949 µM",37.3%
same,"viability, T/C","second compound 0.00949 µM, first compound 0.003 µM",36.1%
same,"viability, T/C","second compound 0.00949 µM, first compound 0.00949 µM",30.4%
same,"viability, T/C","second compound 0.00949 µM, first compound 0.03 µM",30.7%
same,"viability, T/C","second compound 0.00949 µM, first compound 0.0949 µM",28.1%
same,"viability, T/C","second compound 0.00949 µM, first compound 0.3 µM",28.7%
same,"viability, T/C","second compound 0.03 µM, first compound 0.000949 µM",30%
same,"viability, T/C","second compound 0.03 µM, first compound 0.003 µM",30.9%
same,"viability, T/C","second compound 0.03 µM, first compound 0.00949 µM",26.4%
same,"viability, T/C","second compound 0.03 µM, first compound 0.03 µM",25.5%
same,"viability, T/C","second compound 0.03 µM, first compound 0.0949 µM",28.5%
same,"viability, T/C","second compound 0.03 µM, first compound 0.3 µM",26%
same,"viability, T/C","second compound 0.0949 µM, first compound 0.000949 µM",24.8%
same,"viability, T/C","second compound 0.0949 µM, first compound 0.003 µM",27.1%
same,"viability, T/C","second compound 0.0949 µM, first compound 0.00949 µM",26.1%
same,"viability, T/C","second compound 0.0949 µM, first compound 0.03 µM",24%
same,"viability, T/C","second compound 0.0949 µM, first compound 0.0949 µM",26.8%
same,"viability, T/C","second compound 0.0949 µM, first compound 0.3 µM",23.8%
same,"viability, T/C","second compound 0.3 µM, first compound 0.000949 µM",22.5%
same,"viability, T/C","second compound 0.3 µM, first compound 0.003 µM",23.4%
same,"viability, T/C","second compound 0.3 µM, first compound 0.00949 µM",22.8%
same,"viability, T/C","second compound 0.3 µM, first compound 0.03 µM",22.4%
same,"viability, T/C","second compound 0.3 µM, first compound 0.0949 µM",25.4%
same,"viability, T/C","second compound 0.3 µM, first compound 0.3 µM",21.9%
C#Cc1c(F)ccc2cc(O)cc(-c3ncc4c(N5CC6CCC(C5)N6)nc(OCC56CCCN5CC(F)C6)nc4c3F)c12 (configuration not stated),"viability, T/C",compound 0.0316 µM,104% [middle of 8 runs]
same,"viability, T/C",compound 0.1 µM,101% [middle of 8 runs]
same,"viability, T/C",compound 0.316 µM,94.6% [middle of 8 runs]
same,"viability, T/C",compound 1 µM,84.3% [middle of 8 runs]
same,"viability, T/C",compound 3.16 µM,78.7% [middle of 8 runs]
same,IC50,"compound alone, run of 07/15/2024",> 10000 nM
